Measured values taken from US8952024B2, “Herbicidal pyrimidone derivatives” (E I du Pont de Nemours and Company, priority 2009, dated 2015).

How the values were obtained:
Test in all cases: Test B pre-/postemergence plant response
Format in all cases: in vivo
[1] = tested on: galium (catchweed bedstraw, Galium aparine); settings: Preemergence; for Galium plant response rating: 125 g ai/ha
Summary of the method: (§1)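 Greenhouse herbicide screen. Pre- and postemergence (1- to 4-leaf) spray of compound in solvent/surfactant mixture; loam–sand soil for pre, peat/vermiculite medium for post. Visual control rating 0–100 at 13 to 15 days after treatment.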

wild oat (Avena fatua) = tested on: wild oat (Avena fatua)
Summary of the method: as §1

kochia (Kochia scoparia) = settings: Postemergence; for Plant response rating, Kochia: scale 0 (no effect) to 100 (complete control); for Kochia plant response rating: 250 g ai/ha, scale 0 to 100
Summary of the method: as §1

[2] = tested on: yellow nutsedge (Cyperus esculentus)
Summary of the method: as §1

[3] = tested on: cocklebur (Xanthium strumarium)
Summary of the method: as §1

[4] = tested on: woolly cupgrass (Eriochloa villosa)
Summary of the method: as §1

[5] = tested on: lambsquarters (Chenopodium album)
Summary of the method: as §1

[6] = tested on: sunflower (common oilseed sunflower, Helianthus annuus); settings: Preemergence; for Sunflower plant response rating: 125 g ai/ha
Summary of the method: as §1

[7] = tested on: nightshade (eastern black nightshade, Solanum ptycanthum); settings: Preemergence; for Nightshade plant response rating: 125 g ai/ha
Summary of the method: as §1

[8] = tested on: Surinam grass (Brachiaria decumbens)
Summary of the method: as §1

[9] = tested on: large crabgrass (Digitaria sanguinalis)
Summary of the method: as §1

[10] = tested on: goosegrass (Eleusine indica); settings: Preemergence, 62 g ai/ha; scale 0 to 100, 0 no effect, 100 complete control
[11] = 31 g ai/ha, scale 0 to 100 (0 no effect, 100 complete control)
[12] = 62 g ai/ha, scale 0 to 100, 0 no effect, 100 complete control
[13] = 250 g ai/ha, Preemergence, 0 to 100 scale
[14] = Postemergence, 62 g ai/ha, scale 0 (no effect) to 100 (complete control), 13 to 15 days
[15] = Postemergence, 125 g ai/ha, visual rating after 13 to 15 days, scale 0 (no effect) to 100 (complete control)
[16] = Preemergence, 31 g ai/ha, scale 0 to 100 (0 no effect, 100 complete control)
[17] = Preemergence, 62 g ai/ha, scale 0 to 100, 0 no effect, 100 complete control
[18] = Preemergence, 125 g ai/ha, 0 to 100 scale
[19] = 125 g ai/ha, visual rating after 13 to 15 days
[20] = Postemergence, 31 g ai/ha, scale 0 to 100 (0 no effect, 100 complete control)
[21] = Postemergence, 250 g ai/ha, scale 0 to 100

O=C1CCCC(O)=C1C(=O)c1cnc(-c2cccc(Cl)c2)n(-c2ccccc2)c1=O [Compound 34]
Plant response rating, Galium ([1]; 250 g ai/ha, 0 to 100 scale): 98 | Plant response rating, Galium [1, 11]: 10 | Plant response rating, Galium [1, 12]: 50 | Galium plant response rating ([1]; 0 to 100 scale): 90 | Plant response rating, Oat, Wild (wild oat (Avena fatua); [13]): 60 | Plant response rating, Oat, Wild (wild oat (Avena fatua); [14]): 50 | Plant response rating, Oat, Wild (wild oat (Avena fatua); [15]): 60 | Plant response rating, Oat, Wild (wild oat (Avena fatua); [16]): 10 | Plant response rating, Oat, Wild (wild oat (Avena fatua); [17]): 10 | Oat, Wild plant response rating (wild oat (Avena fatua); [18]): 30 | Plant response rating, Kochia (kochia (Kochia scoparia); 62 g ai/ha, 13 to 15 days): 95 | Plant response rating, Kochia (kochia (Kochia scoparia); [19]): 100 | Kochia plant response rating (kochia (Kochia scoparia)): 100 | Plant response rating, Nutsedge, Yellow [2, 13]: 90 | Plant response rating, Nutsedge, Yellow [2, 14]: 25 | Plant response rating, Nutsedge, Yellow [2, 15]: 55 | Plant response rating, Nutsedge, Yellow [2, 16]: 10 | Plant response rating, Nutsedge, Yellow [2, 17]: 45 | Nutsedge, Yellow plant response rating [2, 18]: 75 | Plant response rating, Cocklebur [3, 13]: 85 | Plant response rating, Cocklebur [3, 20]: 0 | Plant response rating, Cocklebur [3, 14]: 25 | Plant response rating, Cocklebur [3, 15]: 85 | Cocklebur plant response rating [3, 21]: 95 | Plant response rating, Cocklebur [3, 16]: 0 | Plant response rating, Cocklebur [3, 17]: 55 | Cocklebur plant response rating [3, 18]: 75 | Plant response rating, Cupgrass, Woolly [4, 13]: 100 | Plant response rating, Cupgrass, Woolly [4, 20]: 80 | Plant response rating, Cupgrass, Woolly [4, 14]: 80 | Plant response rating, Cupgrass, Woolly [4, 15]: 90 | Cupgrass, Woolly plant response rating [4, 21]: 95 | Plant response rating, Cupgrass, Woolly [4, 16]: 100 | Plant response rating, Cupgrass, Woolly [4, 17]: 100 | Cupgrass, Woolly plant response rating [4, 18]: 100 | Plant response rating, Lambsquarters [5, 13]: 100 | Plant response rating, Lambsquarters [5, 14]: 98 | Plant response rating, Lambsquarters [5, 15]: 100 | Lambsquarters plant response rating [5, 21]: 100 | Plant response rating, Lambsquarters [5, 16]: 100 | Plant response rating, Lambsquarters [5, 17]: 100 | Lambsquarters plant response rating [5, 18]: 100 | Plant response rating, Sunflower ([6]; 250 g ai/ha, 0 to 100 scale): 90 | Plant response rating, Sunflower [6, 11]: 55 | Plant response rating, Sunflower [6, 12]: 70 | Sunflower plant response rating ([6]; 0 to 100 scale): 80 | Plant response rating, Nightshade ([7]; 250 g ai/ha, 0 to 100 scale): 100 | Plant response rating, Nightshade [7, 11]: 55 | Plant response rating, Nightshade [7, 12]: 95 | Nightshade plant response rating ([7]; 0 to 100 scale): 100 | Plant response rating, Surinam Grass [8, 13]: 90 | Plant response rating, Surinam Grass [8, 14]: 75 | Plant response rating, Surinam Grass [8, 15]: 80 | Plant response rating, Surinam Grass [8, 16]: 5 | Plant response rating, Surinam Grass [8, 17]: 60 | Surinam Grass plant response rating [8, 18]: 65 | Plant response rating, Crabgrass, Large [9, 13]: 100 | Plant response rating, Crabgrass, Large [9, 20]: 80 | Plant response rating, Crabgrass, Large [9, 14]: 85 | Plant response rating, Crabgrass, Large [9, 15]: 95 | Crabgrass, Large plant response rating [9, 21]: 98 | Plant response rating, Crabgrass, Large [9, 16]: 55 | Plant response rating, Crabgrass, Large [9, 17]: 100 | Crabgrass, Large plant response rating [9, 18]: 100 | Plant response rating, Goosegrass [10]: 100

O=C1CCCC(O)=C1C(=O)c1cnc(-c2ccccc2)n(-c2ccccc2Br)c1=O [Compound 37]
Plant response rating, Galium ([1]; 250 g ai/ha, 0 to 100 scale): 100 | Plant response rating, Galium [1, 11]: 0 | Plant response rating, Galium [1, 12]: 10 | Galium plant response rating ([1]; 0 to 100 scale): 30 | Plant response rating, Oat, Wild (wild oat (Avena fatua); [13]): 10 | Plant response rating, Oat, Wild (wild oat (Avena fatua); [14]): 10 | Plant response rating, Oat, Wild (wild oat (Avena fatua); [15]): 40 | Plant response rating, Oat, Wild (wild oat (Avena fatua); [16]): 0 | Oat, Wild plant response rating (wild oat (Avena fatua); [18]): 0 | Plant response rating, Kochia (kochia (Kochia scoparia); 62 g ai/ha, 13 to 15 days): 0 | Plant response rating, Kochia (kochia (Kochia scoparia); [19]): 15 | Kochia plant response rating (kochia (Kochia scoparia)): 65 | Plant response rating, Nutsedge, Yellow [2, 13]: 90 | Plant response rating, Nutsedge, Yellow [2, 14]: 15 | Plant response rating, Nutsedge, Yellow [2, 15]: 25 | Plant response rating, Nutsedge, Yellow [2, 16]: 0 | Nutsedge, Yellow plant response rating [2, 18]: 20 | Plant response rating, Cocklebur [3, 13]: 45 | Plant response rating, Cocklebur [3, 16]: 0 | Cocklebur plant response rating [3, 18]: 0 | Plant response rating, Cupgrass, Woolly [4, 13]: 70 | Plant response rating, Cupgrass, Woolly [4, 20]: 55 | Plant response rating, Cupgrass, Woolly [4, 14]: 65 | Plant response rating, Cupgrass, Woolly [4, 15]: 75 | Cupgrass, Woolly plant response rating [4, 21]: 100 | Plant response rating, Cupgrass, Woolly [4, 16]: 0 | Plant response rating, Cupgrass, Woolly [4, 17]: 0 | Cupgrass, Woolly plant response rating [4, 18]: 10 | Plant response rating, Lambsquarters [5, 13]: 100 | Plant response rating, Lambsquarters [5, 14]: 98 | Plant response rating, Lambsquarters [5, 15]: 98 | Lambsquarters plant response rating [5, 21]: 100 | Plant response rating, Lambsquarters [5, 16]: 95 | Plant response rating, Lambsquarters [5, 17]: 98 | Lambsquarters plant response rating [5, 18]: 100 | Plant response rating, Sunflower ([6]; 250 g ai/ha, 0 to 100 scale): 90 | Plant response rating, Sunflower [6, 11]: 0 | Sunflower plant response rating ([6]; 0 to 100 scale): 45 | Plant response rating, Nightshade ([7]; 250 g ai/ha, 0 to 100 scale): 85 | Plant response rating, Nightshade [7, 11]: 0 | Plant response rating, Nightshade [7, 12]: 40 | Nightshade plant response rating ([7]; 0 to 100 scale): 80 | Plant response rating, Surinam Grass [8, 13]: 100 | Plant response rating, Surinam Grass [8, 14]: 70 | Plant response rating, Surinam Grass [8, 15]: 75 | Plant response rating, Surinam Grass [8, 16]: 0 | Surinam Grass plant response rating [8, 18]: 55 | Plant response rating, Crabgrass, Large [9, 13]: 100 | Plant response rating, Crabgrass, Large [9, 20]: 70 | Plant response rating, Crabgrass, Large [9, 14]: 75 | Plant response rating, Crabgrass, Large [9, 15]: 85 | Crabgrass, Large plant response rating [9, 21]: 90 | Plant response rating, Crabgrass, Large [9, 16]: 0 | Plant response rating, Crabgrass, Large [9, 17]: 0 | Crabgrass, Large plant response rating [9, 18]: 10 | Plant response rating, Goosegrass [10]: 0
